Data from patent publication US12139520B2 (priority 2020, dated 2024).
Numbered stars: 1 amine (or outer) side, 2 acyl side, 3 side chain; on linkers, the order of the positions; unused ones are H or OH. Bridge positions count the residues as written; N and C are the ends. Square brackets hold non-standard residues; d marks the D form. Peptide text beside a SMILES is read from it. * marks the point of attachment. C20 diacid = O=C(O)CCCCCCCCCCCCCCCCCCC(=O)*; γGlu = O=C(O)[C@H](CCC(=O)[*:2])N[*:1]; Hyp = O=C(O)[C@@H]1C[C@@H](O)CN1; Aib = CC(C)(N)C(=O)O

Assays:
hAM1 receptor = hAM1 receptor (Homo sapiens, UniProt O60895+Q16602); test: cAMP assay for in vitro receptor activation, hAM1-R; type: cell-based; settings: cAMP assay, hAM1 receptor; read-out: hAM1R EC50
hAM1 receptor, sequence (Q16602 23-461): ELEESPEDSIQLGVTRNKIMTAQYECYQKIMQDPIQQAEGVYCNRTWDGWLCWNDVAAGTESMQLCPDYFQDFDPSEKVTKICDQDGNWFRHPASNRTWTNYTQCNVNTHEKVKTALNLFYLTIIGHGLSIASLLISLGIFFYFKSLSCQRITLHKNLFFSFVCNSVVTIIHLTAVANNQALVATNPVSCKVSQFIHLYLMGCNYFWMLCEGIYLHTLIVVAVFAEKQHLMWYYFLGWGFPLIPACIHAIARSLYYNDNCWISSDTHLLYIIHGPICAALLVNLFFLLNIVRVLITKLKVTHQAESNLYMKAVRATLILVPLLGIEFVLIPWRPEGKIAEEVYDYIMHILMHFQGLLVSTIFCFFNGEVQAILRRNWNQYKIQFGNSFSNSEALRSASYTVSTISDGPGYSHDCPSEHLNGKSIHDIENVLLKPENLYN
hAM1 receptor, sequence (O60895 43-175 partner): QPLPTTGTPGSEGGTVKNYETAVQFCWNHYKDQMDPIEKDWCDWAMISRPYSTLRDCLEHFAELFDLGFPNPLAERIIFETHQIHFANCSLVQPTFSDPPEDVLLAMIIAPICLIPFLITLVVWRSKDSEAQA
How it was run: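 A subcloned monoclonal line stably expressing hAM1 receptor is thawed and plated at 8000 cells/well. The assay buffer is DPBS with 0.05% casein and 0.5 mM IBMX, and receptor activation is followed by cAMP levels.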

hAMY3 receptor = biological target: T1, hAMY3 receptor (Homo sapiens, UniProt O60896+P30988); test: cAMP assay for in vitro receptor activation, hAMY3-R; type: cell-based; settings: cAMP assay, hAMY3 receptor; read-out: hAMY3R EC50
T1 sequence (P30988 25-474): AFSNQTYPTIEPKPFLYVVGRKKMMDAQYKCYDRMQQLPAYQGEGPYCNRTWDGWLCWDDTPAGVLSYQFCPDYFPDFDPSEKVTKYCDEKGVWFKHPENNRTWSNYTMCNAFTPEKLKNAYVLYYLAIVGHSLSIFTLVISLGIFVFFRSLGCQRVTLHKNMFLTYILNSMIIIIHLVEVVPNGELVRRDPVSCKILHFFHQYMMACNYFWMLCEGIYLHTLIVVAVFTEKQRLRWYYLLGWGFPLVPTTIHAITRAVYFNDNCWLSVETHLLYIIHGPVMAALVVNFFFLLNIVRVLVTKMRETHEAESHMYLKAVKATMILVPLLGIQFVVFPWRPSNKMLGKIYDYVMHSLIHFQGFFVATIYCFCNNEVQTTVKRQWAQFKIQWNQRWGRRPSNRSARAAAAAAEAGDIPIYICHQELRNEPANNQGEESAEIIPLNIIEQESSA
T1 sequence (O60896 24-148 partner): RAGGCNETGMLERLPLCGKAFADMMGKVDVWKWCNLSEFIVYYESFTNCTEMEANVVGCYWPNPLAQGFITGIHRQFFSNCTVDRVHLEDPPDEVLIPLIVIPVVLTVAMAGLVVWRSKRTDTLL
How it was run: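 Stable hAMY3 cells; DPBS + 0.05% casein + 0.5 mM IBMX; graded compound doses, 30 min, RT; cAMP via HTRF Gs kit, TR-FRET read at 1 h.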

| EC50 (hAM1 receptor) [nM] | EC50 (hAMY3 receptor) [nM] | SMILES |
| --- | --- | --- |
| > 5000 | 0.01 | CC[C@H](C)[C@H](NC(=O)[C@H](CCC(N)=O)NC(=O)[C@H](CCC(=O)O)NC(=O)[C@H](C)NC(=O)[C@H](CC(C)C)NC(=O)[C@H](CCCNC(=N)N)NC(=O)[C@H](CCC(N)=O)NC(=O)[C@@H](NC(=O)[C@@H](NC(=O)[C@@H]1CSSC[C@H](NC(=O)[C@@H](N)CCCCN)C(=O)N[C@@H](CC(N)=O)C(=O)N[C@@H]([C@@H](C)O)C(=O)N[C@@H](C)C(=O)N[C@@H]([C@@H](C)O)C(=O)N1)[C@@H](C)O)C(C)C)C(=O)N[C@@H](Cc1ccc(O)cc1)C(=O)N[C@@H](CCC(N)=O)C(=O)N[C@@H](Cc1ccccc1)C(=O)N[C@H](C(=O)N[C@@H](CC(=O)O)C(=O)N[C@@H](CCCCN)C(=O)N[C@@H](CC(=O)O)C(=O)N[C@@H](CCCCN)C(=O)N[C@@H](CC(=O)O)C(=O)N[C@@H](CC(N)=O)C(=O)N[C@H](C(=O)N[C@@H](C)C(=O)N1CCC[C@H]1C(=O)N1CCC[C@H]1C(=O)N[C@@H](Cc1ccc(O)cc1)C(=O)N[C@@H](CC(N)=O)C(=O)N[C@@H](CCC(=O)O)C(=O)NCC(=O)N[C@@H](CO)C(=O)N[C@@H](CC(N)=O)C(=O)NCC(=O)N1C[C@H](O)C[C@H]1C(N)=O)C(C)C)[C@@H](C)O [compound 44] (H-KCNTATCTVQRLAEQIYQFTDKDKDNVAPPYNEGSNG[Hyp]-NH2; disulfide 2-7; N-terminus assumed) |
| > 5000 | 0.186 | CC[C@H](C)[C@H](NC(=O)[C@H](CCC(N)=O)NC(=O)[C@H](Cc1c[nH]cn1)NC(=O)[C@H](C)NC(=O)[C@H](CC(C)C)NC(=O)[C@H](CCCNC(=N)N)NC(=O)[C@H](CCC(N)=O)NC(=O)[C@@H](NC(=O)[C@@H](NC(=O)[C@@H]1CSSC[C@H](NC(=O)[C@H](CCCCN)NC(=O)CC[C@H](NC(=O)CCCCCCCCCCCCCCCCCCC(=O)O)C(=O)O)C(=O)N[C@@H](CC(N)=O)C(=O)N[C@@H]([C@@H](C)O)C(=O)N[C@@H](CC(C)C)C(=O)N[C@@H]([C@@H](C)O)C(=O)N1)[C@@H](C)O)C(C)C)C(=O)N[C@@H](Cc1ccc(O)cc1)C(=O)N[C@@H](CCC(N)=O)C(=O)N[C@@H](Cc1ccccc1)C(=O)N[C@H](C(=O)N[C@@H](CC(=O)O)C(=O)N[C@@H](CCCCN)C(=O)N[C@@H](CC(=O)O)C(=O)N[C@@H](CCCCN)C(=O)N[C@@H](CC(=O)O)C(=O)N[C@@H](CC(N)=O)C(=O)N[C@H](C(=O)N[C@@H](C)C(=O)N1CCC[C@H]1C(=O)N1CCC[C@H]1C(=O)N[C@H](C(=O)N[C@@H](CC(N)=O)C(=O)N[C@H](C(=O)NCC(=O)N[C@@H](CO)C(=O)N[C@@H](CC(N)=O)C(=O)NCC(=O)N1C[C@H](O)C[C@H]1C(N)=O)C(C)C)[C@@H](C)O)C(C)C)[C@@H](C)O [compound 225] ({C20 diacid-γGlu}-KCNTLTCTVQRLAHQIYQFTDKDKDNVAPPTNVGSNG[Hyp]-NH2; disulfide 2-7) |
| > 5000 | 0.024 | CC[C@H](C)[C@H](NC(=O)[C@H](CCC(N)=O)NC(=O)[C@H](Cc1c[nH]cn1)NC(=O)[C@H](C)NC(=O)[C@H](CC(C)C)NC(=O)[C@H](CCCNC(=N)N)NC(=O)[C@H](CCC(N)=O)NC(=O)[C@@H](NC(=O)[C@@H](NC(=O)[C@@H]1CSSC[C@H](NC(=O)[C@H](CCCCN)NC(=O)CC[C@H](NC(=O)CCCCCCCCCCCCCCCCCCC(=O)O)C(=O)O)C(=O)N[C@@H](CC(N)=O)C(=O)N[C@@H]([C@@H](C)O)C(=O)NC(C)(C)C(=O)N[C@@H]([C@@H](C)O)C(=O)N1)[C@@H](C)O)C(C)C)C(=O)N[C@@H](Cc1ccc(O)cc1)C(=O)N[C@@H](CCC(N)=O)C(=O)N[C@@H](Cc1ccccc1)C(=O)N[C@H](C(=O)N[C@@H](CC(=O)O)C(=O)N[C@@H](CCCCN)C(=O)N[C@@H](CC(=O)O)C(=O)N[C@@H](CCCCN)C(=O)N[C@@H](CC(=O)O)C(=O)N[C@@H](CC(N)=O)C(=O)N[C@H](C(=O)N[C@@H](C)C(=O)N1CCC[C@H]1C(=O)N1CCC[C@H]1C(=O)N[C@H](C(=O)N[C@@H](CC(N)=O)C(=O)N[C@H](C(=O)NCC(=O)N[C@@H](CO)C(=O)N[C@@H](CC(N)=O)C(=O)NCC(=O)N1C[C@H](O)C[C@H]1C(N)=O)C(C)C)[C@@H](C)O)C(C)C)[C@@H](C)O [compound 119] ({C20 diacid-γGlu}-KCNT[Aib]TCTVQRLAHQIYQFTDKDKDNVAPPTNVGSNG[Hyp]-NH2; disulfide 2-7) |
